Measurements reported in patent US20130203602A1, “SUPPORTED BIOLOGICALLY ACTIVE COMPOUNDS” (Danmarks Tekniske Universitet, priority 2010, published 2013).
Marks after values point to notes of the source that are not given here.

Assay: Thermal stability determination by thermogravimetric analysis (TGA)
Type: physicochemical
Settings: for Inflection point / T5% onset temperature: not supported/neat; for Inflection point: TGA 25-800° C., 5° C./min, under air; for T5% onset temperature: TGA 5° C./min, under nitrogen; for temperature at which it starts to decompose: heated neat

Row | Molecule | Inflection point [°C] | further results
1 | CC(C)Cc1ccc(C(C)C(=O)O)cc1.CCN(CC)CC(=O)Nc1c(C)cccc1C [[8], Lidocainium Ibuprofenate] | – | T5%onset (neat compound, given with the synthesis example): 177 °C
2 | Tributylmethylammonium Acyclovir [Tributylmethylammonium Acyclovir [2]] | 203 | –
3 | CC(C)Cc1ccc(C(C)C(=O)O)cc1 (stereo not shown) [Tetrabutylphosphonium Ibuprofenate [7]] | – | T5% onset temperature: 236* ° C.
4 | Nc1nc2c(ncn2COCCO)c(=O)[nH]1 [Trimethylhexadecylammonium acyclovir [3]] [Trimethylhexadecylammonium Aciclovir] | 189 | –
5 | Itraconazolium Dioctylsulfosuccinate [Itraconazolium Dioctylsulfosuccinate [5]] | 257 | –
6 | CC(C)Cc1ccc(C(C)C(=O)O)cc1 (stereo not shown) [Ibuprofene, reference compound] | – | temperature at which it starts to decompose: around 150 °C; T5% onset temperature: 155* ° C.
7 | Nc1nc2c(ncn2COCCO)c(=O)[nH]1 [Acyclovir, reference compound] | 249 | temperature at which it starts to decompose: around 249 °C
8 | O=C(O)CNCP(=O)(O)O [Tetraethylammonium Glyphosate [6], Tetraethylammonium Glyphosate] | 150 | –
